Test results: US6620828B2, “Thiazole compounds and pharmaceutical compositions for inhibiting protein kinases and methods for their use” (Agouron Pharmaceuticals, Inc., priority 1999, dated 2003)
Values joined by “and” are separate entries in the source; they are usually repeats but may differ in a detail not shown here. Identical values can stand only once.

Assays:
[1] = molecular target: T1, phosphorylated VEGF-R2Δ50 (Homo sapiens, UniProt P35968, DEL940-989/E990V); test: VEGF-R2 ELISA assay; assay type: biochemical; conditions: Table 2; * determined with ELISA assay; read-out: FLVK-P Ki
T1 construct: VEGF-R2Δ50 contains residues 806-939 and 990-1171; made in house; host or cells: baculovirus/insect cells
Text: VEGF-R2 Construct for Assay: This construct determines the ability of a test compound to inhibit tyrosine kinase activity. A construct (VEGF-R2Δ50) of the cytosolic domain of human vascular endothelial growth factor receptor 2 (VEGF-R2) lacking the 50 central residues of the 68 residues of the kinase insert domain was expressed in a baculovirus/insect cell system. Of the 1356 residues of full-length VEGF-R2, VEGF-R2Δ50 contains residues 806-939 and 990-1171, and also one point mutation (E990V) within the kinase insert domain relative to wild-type VEGF-R2. Autophosphorylation of the purified construct was performed by incubation of the enzyme at a concentration of 4 μM in the presence of 3 mM ATP and 40 mM MgCl2 in 100 mM Hepes, pH 7.5, containing 5% glycerol and 5 mM DTT, at 4° C. for 2 h. […] See Parast et al., Biochemistry, 37, 16788-16801 (1998).
Formation of phosphogastrin was monitored using biotinylated gastrin peptide (1-17) as substrate. Biotinylated phosphogastrin was immobilized using streptavidin coated 96-well microtiter plates followed by detection using anti-phosphotyrosine-antibody conjugated to horseradish peroxidase. The activity of horseradish peroxidase was monitored using 2,2′-azino-di-[3-ethylbenzathiazoline sulfonate(6)]diammonium salt (ABTS). Typical assay solutions contained: 2 μM biotinylated gastrin peptide; 5 mM DTT; 20 μM ATP; 26 mM MgCl2; and 2 mM MnCl2 in 200 mM Hepes, pH 7.5. The assay was initiated with 0.8 nM of phosphorylated VEGF-R2Δ50. Horseradish peroxidase activity was assayed using ABTS, 10 mM. The horseradish peroxidase reaction was quenched by addition of acid (H2SO4), followed by absorbance reading at 405 nm. Ki values were determined by measuring enzyme activity in the presence of varying concentrations of test compounds. The data were analyzed using Enzyme Kinetic and Kaleidagraph software.

[2] = molecular target: T2, phosphorylated VEGF-R2Δ50 (FLVK-P) (Homo sapiens, UniProt P35968, DEL940-989/E990V); test: VEGF-R2 coupled spectrophotometric (FLVK-P) assay; assay type: biochemical; conditions: for Ki: spectrophotometric assay
T2 construct: VEGF-R2Δ50 contains residues 806-939 and 990-1171; made in house; host or cells: baculovirus/insect cells
Procedure, shortened: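 Baculovirus-expressed human VEGF-R2Δ50 (residues 806-939/990-1171, E990V) was autophosphorylated with 3 mM ATP, 40 mM MgCl2 for 2 h at 4° C. ADP formation was coupled via PK/LDH to NADH oxidation, read at 340 nm, with 5.1 mM poly(E4Y1), 1 mM ATP, 25 mM MgCl2, Hepes pH 7.5. Ki came from activity across compound concentrations.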

[3] = molecular target: CDK2/Cyclin A complex (Homo sapiens, UniProt P24941); test: CDK2/Cyclin A assay; assay type: biochemical; conditions: Table 2
Procedure, shortened: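 Radiometric assay: 150 nM CDK2/cyclin A (insect-cell CDK2, truncated cyclin A) phosphorylates His-tagged Rb fragment (residues 386-928) with 25 μM ATP plus [32P]ATP, pH 7.4 HEPES, 2% DMSO, 30 °C for 20 min. Filter-captured product counted by phosphorimager; apparent Ki from competitive or tight-binding inhibition fits.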

[4] = molecular target: T3, CDK4/Cyclin D3 complex (Homo sapiens, UniProt P11802); test: CDK4/Cyclin D assay; assay type: biochemical; conditions: Table 2
T3 construct: made in house; host or cells: insect cells co-infected with baculovirus vectors
Procedure, shortened: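 Insect-cell-expressed CDK4/cyclin D3 (50 nM) phosphorylating His-tagged Rb fragment (residues 386-928) with 25 μM [^32P]ATP in HEPES pH 7.4, MgCl2, 2% DMSO; 20 min at 30 °C, EDTA stop. Filter-captured 32P by phosphorimager; apparent Ki from competitive or tight-binding inhibition fits.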

[5] = molecular target: T4, CHK1 (Homo sapiens, UniProt O14757); test: CHK1 high-throughput screening; assay type: biochemical; conditions: for inhibition at 20 µM: read-out: % inhibition @ 20 μM, Table 4, repeated entries per example; for % inhibition @ 20 μM: Table 4, repeated entries per example
T4 sequence (O14757 1-476): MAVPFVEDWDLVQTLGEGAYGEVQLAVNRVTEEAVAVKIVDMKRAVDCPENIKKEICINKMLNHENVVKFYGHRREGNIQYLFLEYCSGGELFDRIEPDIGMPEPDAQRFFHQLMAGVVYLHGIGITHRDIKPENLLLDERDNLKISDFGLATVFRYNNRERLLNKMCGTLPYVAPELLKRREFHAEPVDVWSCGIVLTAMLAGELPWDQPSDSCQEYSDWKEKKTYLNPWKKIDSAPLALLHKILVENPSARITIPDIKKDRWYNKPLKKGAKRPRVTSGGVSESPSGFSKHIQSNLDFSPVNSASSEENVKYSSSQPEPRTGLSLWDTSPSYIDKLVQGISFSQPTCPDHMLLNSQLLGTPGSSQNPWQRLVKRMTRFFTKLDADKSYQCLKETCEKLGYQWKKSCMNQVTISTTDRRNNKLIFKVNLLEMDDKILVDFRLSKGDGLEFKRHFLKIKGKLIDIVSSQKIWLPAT

[6] = tested on: human umbilical vein endothelial cells (HUVEC); test: HUVEC proliferation assay; assay type: cell-based; conditions: Homo sapiens, HUVEC, Table 1
Procedure, shortened: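 Readout was MTT dye reduction (A595) after 72 h of stimulation with VEGF at 6 ng/ml final. Compound, in 0.1% DMSO final, was added 1 h before VEGF to HUVEC starved 24 h in 1% FBS. % inhibition was scaled between VEGF-alone and unstimulated wells; IC50 was fitted from triplicate dose curves.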

[7] = tested on: lung cancer cells (line MV522); test: Cancer cell proliferation (MV522) assay; assay type: cell-based; conditions: MV522, Table 1
Experimental: Cancer Cell Proliferation (MV522) Assay
The protocol for assessing cellular proliferation in cancer cells is similar to that used for assessments in HUVEC cells. Two thousand lung cancer cells (line MV522, acquired from American Tissue Cultural Collection) were seeded in growth media (RPMI1640 medium supplemented with 2 mM glutamine and 10% FBS). Cells are allowed to attach for 1 day prior to addition of test agents and/or vehicles. Cells are treated simultaneously with the same test agents used in the HUVEC assay. Cellular proliferation is quantified by MTT dye reduction assay 72 hours after exposure to test agents. The total length of the assay is 4 days vs. 5 for HUVEC cells because MV522 cells are not exposed to starvation medium.

T1 sequence (P35968 with tags, fused parts or gaps DEL940-989/E990V limits assumed): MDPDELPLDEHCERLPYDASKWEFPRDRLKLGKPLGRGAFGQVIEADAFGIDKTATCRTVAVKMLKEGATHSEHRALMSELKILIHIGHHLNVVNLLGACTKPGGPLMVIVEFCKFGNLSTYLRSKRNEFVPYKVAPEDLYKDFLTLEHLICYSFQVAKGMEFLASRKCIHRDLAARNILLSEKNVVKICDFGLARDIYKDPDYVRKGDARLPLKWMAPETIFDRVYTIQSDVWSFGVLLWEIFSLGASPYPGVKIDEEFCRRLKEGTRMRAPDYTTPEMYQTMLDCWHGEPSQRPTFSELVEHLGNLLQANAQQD
T2 sequence (P35968 with tags, fused parts or gaps DEL940-989/E990V limits assumed): as above
T3 sequence (P11802 whole entry): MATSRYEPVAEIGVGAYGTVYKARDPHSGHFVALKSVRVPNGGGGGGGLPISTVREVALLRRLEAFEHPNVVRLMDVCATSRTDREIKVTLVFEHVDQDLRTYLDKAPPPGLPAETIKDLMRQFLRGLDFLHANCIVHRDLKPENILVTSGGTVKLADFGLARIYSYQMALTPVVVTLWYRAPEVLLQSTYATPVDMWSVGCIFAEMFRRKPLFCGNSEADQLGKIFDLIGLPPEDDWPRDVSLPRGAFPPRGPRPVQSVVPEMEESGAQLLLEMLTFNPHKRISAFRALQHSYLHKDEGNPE
T3 sequence (P30281 whole entry partner): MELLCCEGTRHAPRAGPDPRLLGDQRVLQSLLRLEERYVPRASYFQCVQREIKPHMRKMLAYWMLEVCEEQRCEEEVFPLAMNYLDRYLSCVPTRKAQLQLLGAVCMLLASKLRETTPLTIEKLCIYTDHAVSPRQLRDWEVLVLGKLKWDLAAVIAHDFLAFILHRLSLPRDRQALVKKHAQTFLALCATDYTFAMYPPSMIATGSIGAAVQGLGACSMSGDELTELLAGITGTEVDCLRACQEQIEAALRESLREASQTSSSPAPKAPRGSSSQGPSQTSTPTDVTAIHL

With `COc1cc(Nc2nc(N)c(C3=NC(c4ccccc4Br)CO3)s2)cc(OC)c1OC` (racemic) [I(13), (R/S)-5-[4-(2-Bromo-phenyl)-4,5-dihydro-oxazol-2-yl]-N^2-(3,4,5-trimethoxy-phenyl)-thiazole-2,4-diamine] the Ki [1] was 1.25 µM.
Work on `COc1cc(Nc2nc(N)c(C3=NC(c4cccc(Br)c4)CO3)s2)cc(OC)c1OC` (racemic) [I(14), (R/S)-5-[4-(3-Bromo-phenyl)-4,5-dihydro-oxazol-2-yl]-N^2-(3,4,5-trimethoxy-phenyl)-thiazole-2,4-diamine] yielded a Ki [1] of 1.17 µM.
In the case of `COc1cc(Nc2nc(N)c(C3=NC(C)CO3)s2)cc(OC)c1OC` (racemic) [I(15), (R/S)-5-(4-Methyl-4,5-dihydro-oxazol-2-yl)-N^2-(3,4,5-trimethoxy-phenyl)-thiazole-2,4-diamine], the Ki [1] is reported as 73 µM.
Work on `COc1cc(Nc2nc(N)c(C3=NC(C(C)C)CO3)s2)cc(OC)c1OC` (racemic) [I(17), (R/S)-5-(4-Isopropyl-4,5-dihydro-oxazol-2-yl)-N^2-(3,4,5-trimethoxy-phenyl)-thiazole-2,4-diamine] yielded a Ki [1] of 35 µM.
In the case of `COc1cc(Nc2nc(N)c(C3=NCC(C)O3)s2)cc(OC)c1OC` (racemic) [I(19), (R/S)-5-(5-Methyl-4,5-dihydro-oxazol-2-yl)-N^2-(3,4,5-trimethoxy-phenyl)-thiazole-2,4-diamine], the Ki [1] is reported as 34 µM.
Work on `COc1cc(Nc2nc(N)c(C3=N[C@@H](C)C(c4ccccc4)O3)s2)cc(OC)c1OC` (stereo in doubt) [I(16), 5-(4-Methyl-5-phenyl-4,5-dihydro-oxazol-2-yl)-N^2-(3,4,5-trimethoxy-phenyl)-thiazole-2,4-diamine] yielded a Ki [1] of 178 µM.
With `CNc1nc(N)c(-c2nc(-c3cccc(O)c3)cs2)s1` [A(30), 3-(4′-Amino-2′-methylamino-[2,5′]bithiazolyl-4-yl)-phenol] the Ki ([2]; Table 2) was 0.11 µM, the Ki [3] was 4.8 µM and the Ki [4] was 22 µM. For the same compound, the inhibition at 20 µM [5] was 3.4%.
With `CCN(CC)CCCNc1nc(N)c(-c2nc(-c3cccc(NC(=O)c4ccccc4)c3)cs2)s1` [A(37), N-{3-[4′-Amino-2′-(3-diethylamino-propylamino)-[2,5′]bithiazolyl-4-yl]-phenyl}-benzamide] the inhibition at 20 µM [5] was 16%.
`Nc1nc(NCCc2ccccc2)sc1-c1nc(-c2cccc(NC(=O)c3ccccc3)c2)cs1` [A(38), N-[3-(4′-Amino-2′-phenethylamino-[2,5′]bithiazolyl-4-yl)-phenyl]-benzamide] was tested, and the “FLVK-P % inhibition @ 0.05” value ([2]; Table 1, at 0.05, concentration unit not printed (head nM)) was 7% @, the “% inhibition @ 20 μM” value [5] was 9.8% and the inhibition at 20 µM [5] was 9.1%.
With `COC(=O)c1cccc(Nc2nc(N)c(-c3nc(-c4cccc(NC(=O)c5ccccc5)c4)cs3)s2)c1` [A(39), 3-[4′-Amino-4-(3-benzoylaminophenyl)-[2,5′]bithiazolyl-2′-ylamino]-benzoic acid methyl ester] the inhibition at 20 µM [5] was 2.2%.
`Nc1nc(Nc2ccc3c(c2)OCO3)sc1-c1nc(-c2cccc(NC(=O)c3ccccc3)c2)cs1` [A(41), N-{3-[4′-Amino-2′-(benzo[1,3]dioxol-5-ylamino)-[2,5′]bithiazolyl-4-yl]-phenyl}-benzamide] showed an inhibition at 20 µM [5] of 3.8%.
With `Cc1cc(C)cc(Nc2nc(N)c(-c3nc(-c4cccc(NC(=O)c5ccccc5)c4)cs3)s2)c1` [A(42), N-{3-[4′-Amino-2′-(3,5-dimethylphenylamino)-[2,5′]bithiazolyl-4-yl]-phenyl}-benzamide] the Ki ([2]; Table 1) was 0.0073 µM and the inhibition at 20 µM [5] was -0.1%.
Work on `Nc1nc(Nc2ccc3c(c2)CCC3)sc1-c1nc(-c2cccc(NC(=O)c3ccccc3)c2)cs1` [A(43)] yielded an inhibition at 20 µM [5] of -3%.
`CSc1cccc(Nc2nc(N)c(-c3nc(-c4cccc(NC(=O)c5ccccc5)c4)cs3)s2)c1` [A(46), N-{3-[4′-Amino-2′-(3-methylsulfanyl-phenylamino)-[2,5′]bithiazolyl-4-yl]-phenyl}-benzamide] was tested, and the inhibition at 20 µM [5] was 0.9%.
In the case of `Nc1nc(Nc2cccc(C(=O)O)c2)sc1-c1nc(-c2cccc(NC(=O)c3ccccc3)c2)cs1` [A(50), 3-[4′-Amino-4-(3-benzoylamino-phenyl)-[2,5′]bithiazolyl-2′-ylamino]-benzoic acid], the Ki ([2]; Table 1) is reported as 0.0089 µM, the IC50 [6] is reported as > 0.7 µM and the IC50 [7] is reported as > 10 µM. For the same compound, the inhibition at 20 µM [5] was 30.1%.
Work on `COc1ccc(Nc2nc(N)c(-c3nc(-c4cccc(NC(=O)c5ccccc5)c4)cs3)s2)cc1` [A(52), 4-(4′-Amino-4-(3-benzamidophenyl)-[2,5′]bithiazolyl-2′-ylamino)-methoxyphenyl] yielded an inhibition at 20 µM [5] of 2%.
In the case of `Nc1nc(Nc2ccc(S(=O)(=O)N3CCCCC3)cc2)sc1-c1nc(-c2cccc(NC(=O)c3ccccc3)c2)cs1` [A(55), 4-(4′-Amino-4-(3-benzamidophenyl)-[2,5′]bithiazolyl-2′-ylamino)-phenylsulfonylpiperidine], the inhibition at 20 µM [5] is reported as 0.1%.
`Nc1nc(Nc2ccc([N+](=O)[O-])cc2)sc1-c1nc(-c2cccc(NC(=O)c3ccccc3)c2)cs1` [A(56), 4-(4′-Amino-4-(3-benzamidophenyl)-[2,5′]bithiazolyl-2′-ylamino)-nitrophenyl] gave a Ki ([2]; Table 1) of 0.084 µM and an inhibition at 20 µM [5] of -2.9%.
In the case of `CC(=O)c1ccc(Nc2nc(N)c(-c3nc(-c4cccc(NC(=O)c5ccccc5)c4)cs3)s2)cc1` [A(58), 4-(4′-Amino-4-(3-benzamidophenyl)-[2,5′]bithiazolyl-2′-ylamino)-acetophenone], the inhibition at 20 µM [5] is reported as -7.2%.
`Nc1nc(Nc2ccc(S(N)(=O)=O)cc2)sc1-c1nc(-c2ccc(Cl)c(O)c2)cs1` [A(69), 4-[4′-Amino-4-(4-chloro-3-hydroxy-phenyl)-[2,5′]bithiazolyl-2′-ylamino]-benzenesulfonamide] was tested, and the Ki [3] was 4 µM, the Ki [4] was 7.2 µM and the “% inhibition @ 20 μM” value [5] was 2.7% and 3.8%. It also gave an inhibition at 20 µM [5] of 4.8%.
With `Nc1nc(Nc2ccc(S(N)(=O)=O)cc2)sc1-c1nc(-c2ccc(-c3ccccc3)cc2)cs1` [A(70), 4-(4′-Amino-4-biphenyl-4-yl-[2,5′]bithiazolyl-2′-ylamino)-benzenesulfonamide] the inhibition at 100 µM ([4]; at 100 (printed 100 or 100 μM)) was < 0% and the inhibition at 20 µM [5] was 3.8%.
